Measured values from patent US4375478A, “Aminobenzoic acid derivatives” (Abbott Laboratories, priority 1982, dated 1983).

Assays:
[1] = Solubility in the ACAT incubation medium with ethanol; type: physicochemical; details: 1% alcohol, 1.0×10^-4 M
Experimental: The plate was developed in a hexane:diethyl ether:acetic acid solution (90:10:1) and the cholesterol oleate area was visualized with iodine vapor. The cholesterol oleate spot (Rf=0.70) was scraped from the plate and counted in Packard Scinto Liquid. Samples were run in triplicate, and percent inhibition was calculated utilizing controls with sample solvent only. Compounds were dissolved in ethanol, and the final concentration in the incubation medium was 1.0% in the first experiment and 2.5% in the second.

gerbils = assay: Plasma lipoprotein effects in gerbils; type: in vivo, gerbil; details: for HDL-C, After Test / LDL-C plus VLDL-C, After Test / Total Cholesterol, After Test / HDL-C, Before Test / LDL-C plus VLDL-C, Before Test / Total Cholesterol, Before Test / HDL-C, Percent Change / LDL-C plus VLDL-C, Percent Change / Total Cholesterol, Percent Change: gerbil plasma; for HDL-C, Before Test / LDL-C plus VLDL-C, Before Test / Total Cholesterol, Before Test: baseline before dosing; for HDL-C, Percent Change / LDL-C plus VLDL-C, Percent Change / Total Cholesterol, Percent Change: p 0.05
Experimental: Test compounds were suspended in 0.1% methylcellulose in isotonic saline at a concentration such that the desired dose was given in a volume of 4.0 ml/kg.
On the day before initiation of the experiment and on the day before the last dose, food was removed from the gerbils in the early evening, and at 9 a.m. the next day the animals were bled by heart puncture (0.5 ml) after light ether anesthesia; the animals were dosed approximately 2 hours after bleeding on Day 0 and 2 hours before bleeding on the last dosing day. The blood sample was mixed with a solution of EDTA, 50 mg/ml at pH 7.4, so that the final concentration was 1.5 mg/ml. After swirling, the contents were centrifuged at 1500×g for 10 minutes at 5° C. The plasma was removed from the packed cells and a portion was analyzed for cholesterol utilizing the ABA-100 and A-GENT cholesterol reagent. To 0.100 ml of another portion of plasma was added 0.010 ml of Mg^+2 -phosphotungstate reagent (prepared daily by adding one part of MgCl2, 1.5 M, and 4 parts of sodium phosphotungstate, 4%, adjusted to pH 7.4 with 1.0 N NaOH. The mixture was vortexed and allowed to remain at room temperature for 5 minutes. The sample was centrifuged at 100,000×g for 5 minutes and an aliquot of supernatant analyzed for HDL cholesterol (HDL-C). The difference between total plasma cholesterol and HDL-C (after correction for dilution) was utilized as an estimate of low density plus very low density lipoprotein cholesterol (LDL-C plus VLDL-C). Animals were treated for 5 days in the first experiment and for 4 days in the second.
Controls and test compounds were evaluated in groups of 12 gerbils. The significance of the changes in the plasma parameters was evaluated by a paired t-test; tests of hypothesis were performed at the 0.05 significance level.

[2] = system: acyl-coenzyme A:cholesterol acyl transferase (ACAT); assay: Acyl-coenzyme A:cholesterol acyl transferase (ACAT) assay in vitro, liver microsomal protein, cholesterol oleate formation; type: biochemical; details: for ACAT inhibition: 1.0×10^-4 M; for Cholesterol Oleate CPM + S.D. / Cholesterol Oleate Inhibition Percent: 1.0 × 10^-4 M, Ethanol
Experimental: Test Compound (final concentration=1.0×10^-4 M) and 120 mcg of liver microsomal protein were preincubated for 5 minutes at 37° C. in 0.1 M phosphate buffer, pH 7.4, containing 6.0×10^-5 M bovine serum albumin and 0.002 M dithiothreitol (final volume=0.189 ml). Oleoyl-1-^14 C-coenzyme A, dissolved in buffer, was added in a volume of 0.011 ml so that the final concentration was 6.0×10^-5 M at a specific activity of 10.8 mCi/mmol (0.11 u Ci/tube). After incubation at 37° C. for 10 minutes, the reaction was stopped with the addition of 4.0 ml of chloroform:methanol at a ratio of 2:1 (C-M). The mixture was shaken after the addition of 0.84 ml of water, and the organic layer was evaporated to dryness. The aqueous phase was extracted again with 4.0 ml of C-M and the organic layer added to the dried residue of the first extractant. After evaporation, the residue was taken up in 0.040 ml of toluene:chloroform (4:1) and 0.020 ml were spotted on a Silica Gel-G TLC plate, 250 u thickness.

[3] = system: acyl-coenzyme A:cholesterol acyl transferase (ACAT); details: 1.0×10^-4 M; cited from earlier work
[4] = 100 mg/kg, four days, no significant difference
[5] = 1% alcohol (first value of the pair)
[6] = 2.5% alcohol (second value of the pair)
[7] = 100 mg/kg, five days, ± standard deviation
[8] = 100 mg/kg, five days, significant difference
[9] = 123 mg/kg, four days, significant difference

Compound: CCCCCCCCCCCCCCCCNc1ccc(C(=O)[O-])cc1.[Na+]
- solubility in incubation medium [1]: not completely soluble
- HDL-C, After Test (gerbils; 100 mg/kg, four days): 45.1 ± 3.8 mg/dL
- LDL-C plus VLDL-C, After Test (gerbils; 100 mg/kg, four days): 44.9 ± 10.6 mg/dL
- Total Cholesterol, After Test (gerbils; 100 mg/kg, four days): 90.0 ± 11.7 mg/dL
- HDL-C, Before Test (gerbils; 100 mg/kg, four days): 47.1 ± 13.4 mg/dL
- LDL-C plus VLDL-C, Before Test (gerbils; 100 mg/kg, four days): 45.9 ± 15.3 mg/dL
- Total Cholesterol, Before Test (gerbils; 100 mg/kg, four days): 93.0 ± 13.3 mg/dL
- HDL-C, Percent Change (gerbils; [4]): -4%
- LDL-C plus VLDL-C, Percent Change (gerbils; [4]): -2%
- Total Cholesterol, Percent Change (gerbils; [4]): -3%
- ACAT inhibition [2, 5]: 26%
- ACAT inhibition [2, 6]: 45%
- Cholesterol Oleate CPM + S.D. ([2]; 1%): 1917 ± 33 CPM
- Cholesterol Oleate Inhibition Percent ([2]; 1%): 26%
- Cholesterol Oleate CPM + S.D. ([2]; 2.5%): 735 ± 187 CPM
- Cholesterol Oleate Inhibition Percent ([2]; 2.5%): 45%

Compound: CCCCCCCCCCCCCCCCNc1c(Cl)cc(C(=O)O)cc1Cl [Compound B, Sodium (3,5-dichloro-4-hexadecylamino)benzoate]
- HDL-C, Before Test (gerbils; [7]): 51.7 ± 11.1 mg/dL
- LDL-C plus VLDL-C, Before Test (gerbils; [7]): 44.8 ± 7.1 mg/dL
- Total Cholesterol, Before Test (gerbils; [7]): 96.6 ± 12.9 mg/dL
- HDL-C, After Test (gerbils; [7]): 42.0 ± 7.0 mg/dL
- LDL-C plus VLDL-C, After Test (gerbils; [7]): 35.8 ± 6.0 mg/dL
- Total Cholesterol, After Test (gerbils; [7]): 77.7 ± 12.3 mg/dL
- HDL-C, Percent Change (gerbils; [8]): -19%
- LDL-C plus VLDL-C, Percent Change (gerbils; [8]): -20%
- Total Cholesterol, Percent Change (gerbils; [8]): -20%
- HDL-C, After Test (gerbils; 123 mg/kg, four days): 48.8 ± 9.7 mg/dL
- LDL-C plus VLDL-C, After Test (gerbils; 123 mg/kg, four days): 32.1 ± 8.8 mg/dL
- Total Cholesterol, After Test (gerbils; 123 mg/kg, four days): 81.0 ± 10.2 mg/dL
- HDL-C, Before Test (gerbils; 123 mg/kg, four days): 53.7 ± 9.9 mg/dL
- LDL-C plus VLDL-C, Before Test (gerbils; 123 mg/kg, four days): 42.9 ± 16.8 mg/dL
- Total Cholesterol, Before Test (gerbils; 123 mg/kg, four days): 96.6 ± 20.3 mg/dL
- HDL-C, Percent Change (gerbils; [9]): -9%
- LDL-C plus VLDL-C, Percent Change (gerbils; [9]): -25%
- Total Cholesterol, Percent Change (gerbils; [9]): -10%
- animal deaths in the group (gerbils; gerbils, groups of 12, four days, 123 mg/kg): One animal died

Compound: CC(=O)[C@H]1CC[C@H]2[C@@H]3CCC4=CC(=O)CC[C@]4(C)[C@H]3CC[C@]12C [Progesterone]
- ACAT inhibition, literature value of the reference standard [3]: 60%
- ACAT inhibition [2, 5]: 84%
- ACAT inhibition [2, 6]: 74%
- Cholesterol Oleate CPM + S.D. ([2]; 1%): 891 ± 555 CPM
- Cholesterol Oleate Inhibition Percent ([2]; 1%): 65%
- Cholesterol Oleate CPM + S.D. ([2]; 2.5%): 453 ± 61 CPM
- Cholesterol Oleate Inhibition Percent ([2]; 2.5%): 66%
- ACAT inhibition ([2]; at both alcohol concentrations (1% and 2.5%)): 65-66%
